≈ marks a conversion by molar mass, not a printed value. Read-outs that look alike come from different tables or passages of the source.
Tests used:
[1] = biological target: OXA-23 (Acinetobacter baumannii, UniProt Q9L4P2); assay: Ki app determination (Waley's method)
[2] = biological target: OXA-24 (Acinetobacter baumannii, UniProt Q8RLA6); assay: Ki app determination (Waley's method)
[3] = biological target: CTX-M-14 (Escherichia coli, UniProt Q9L5C7); assay: Ki app determination (Waley's method)
[4] = biological target: VIM-1 (Pseudomonas aeruginosa, UniProt A0A0F7KYQ8); assay: Ki app determination (Waley's method)
[5] = biological target: NDM-4 (Klebsiella pneumoniae, UniProt C7C422, M154L); assay: Ki app determination (Waley's method)
[6] = biological target: NDM-6 (Klebsiella pneumoniae, UniProt C7C422, A233V); assay: Ki app determination (Waley's method)
[7] = biological target: SHV-12 (Klebsiella pneumoniae, UniProt P0A3M1, L31Q); assay: Ki app determination (Waley's method)
[8] = biological target: NDM-1 (Klebsiella pneumoniae, UniProt C7C422); assay: Ki app determination (Waley's method)
[9] = biological target: VIM-2 (Escherichia coli, UniProt Q5U7L7); assay: Ki app determination (Waley's method)
[10] = biological target: OXA-66 (Acinetobacter baumannii, UniProt Q58XD2); assay: Ki app determination (Waley's method)
[11] = biological target: SHV-2 (Klebsiella pneumoniae, UniProt P0A9Z8); assay: Ki app determination (Waley's method)
[12] = biological target: IMP-1 (Serratia marcescens, UniProt P52699); assay: Ki app determination (Waley's method)
[13] = biological target: NDM-7 (Klebsiella pneumoniae, UniProt C7C422, D130N/M154L); assay: Ki app determination (Waley's method)
[14] = biological target: OXA-72 (Acinetobacter baumannii, UniProt Q5XQU0); assay: Ki app determination (Waley's method)
[15] = biological target: CTX-M-27 (Escherichia coli, UniProt Q840M4); assay: Ki app determination (Waley's method)
[16] = biological target: IMP-6 (Serratia marcescens, UniProt P52699, S214G); assay: Ki app determination (Waley's method)
[17] = biological target: OXA-65 (Acinetobacter baumannii, UniProt Q58XD3); assay: Ki app determination (Waley's method)
[18] = biological target: CTX-M-15 (Escherichia coli, UniProt Q9EXV5); assay: Ki app determination (Waley's method)
[19] = biological target: SHV-5 (Klebsiella pneumoniae, UniProt P0A3M1); assay: Ki app determination (Waley's method)
[20] = biological target: NDM-5 (Klebsiella pneumoniae, UniProt C7C422, M154L/V88L); assay: Ki app determination (Waley's method)
[21] = biological target: OXA-48 (Klebsiella pneumoniae, UniProt Q6XEC0); assay: Ki app determination (Waley's method)
[22] = biological target: KPC-2 (Klebsiella pneumoniae, UniProt Q9F663); assay: Ki app determination (Waley's method)
[23] = biological target: KPC-38 (Klebsiella pneumoniae, UniProt Q9F663); assay: Ki app determination (Waley's method); details: read-out: Ki app, means from three independent studies
[24] = biological target: KPC-3 (Klebsiella pneumoniae, UniProt Q9F663, H272Y); assay: Ki app determination (Waley's method)
[25] = tested on: serine-carbapenemase-producing isolates (Enterobacterales); assay: MIC, broth microdilution; type: cell-based
[26] = tested on: MEM-, imipenem/relebactam-, and ceftolozane/tazobactam-nonsusceptible P. aeruginosa; assay: MIC, broth microdilution; type: cell-based, Pseudomonas aeruginosa; details: for CLSI MIC interpretation I (intermediate) / CLSI MIC interpretation R (resistant) / CLSI MIC interpretation S (susceptible): CLSI breakpoints, marked c: breakpoints for β-lactam alone; for MIC50 / MIC90: Pseudomonas aeruginosa, fixed concentration (μg/mL) in label; for MIC50: read-out: MIC50; for MIC90: read-out: MIC90
[27] = tested on: MEM-nonsusceptible Enterobacterales with metallo-carbapenemases; assay: MIC, broth microdilution; type: cell-based
[28] = tested on: 96 P. aeruginosa; assay: MIC, broth microdilution; type: cell-based, Pseudomonas aeruginosa; details: Pseudomonas aeruginosa (96)
[29] = tested on: MBL-producing isolates (Enterobacterales); assay: MIC, broth microdilution; type: cell-based
[30] = tested on: MEM-nonsusceptible Enterobacterales; assay: MIC, broth microdilution; type: cell-based
[31] = tested on: 55 isolates of A. baumannii; assay: MIC, broth microdilution; type: cell-based, Acinetobacter baumannii; details: Acinetobacter baumannii (55)
[32] = tested on: MEM-nonsusceptible Enterobacterales with serine-carbapenemases; assay: MIC, broth microdilution; type: cell-based
[33] = tested on: 207 Enterobacterales including carbapenem-resistant isolates; assay: MIC, broth microdilution; type: cell-based
[34] = Ceftolozane/tazobactam-nonsusceptible Pseudomonas aeruginosa (45)
[35] = Imipenem/relebactam-nonsusceptible Pseudomonas aeruginosa (43)
[36] = MEM-nonsusceptible Pseudomonas aeruginosa (76)
[37] = CLSI breakpoints, marked c: breakpoints for β-lactam alone
[38] = fixed concentration (μg/mL) in label, read-out: MIC50
[39] = fixed concentration (μg/mL) in label, read-out: MIC90

O=C(NC1CCNCC1)[C@@H]1CC[C@@H]2CN1C(=O)N2OS(=O)(=O)O [Relebactam, relebactam]
Ki [1]: 5640 nM
Ki [2]: > 100000 nM
Ki [3]: 5.96 ± 3.22 nM
Ki [4]: > 100000 nM
Ki [5]: > 100000 nM
Ki [6]: > 100000 nM
Ki [7]: 19.3 ± 6.32 nM
Ki [8]: > 100000 nM
Ki [9]: > 100000 nM
Ki [10]: > 100000 nM
Ki [11]: 0.373 ± 0.0856 nM
Ki [12]: > 100000 nM
Ki [13]: > 100000 nM
Ki [14]: ≥ 37400 nM
Ki [15]: 3.62 ± 1.2 nM
Ki [16]: > 100000 nM
Ki [17]: > 100000 nM
Ki [18]: 0.841 ± 0.235 nM
Ki [19]: 6.26 ± 1.53 nM
Ki [20]: > 100000 nM

C[C@]1(Cn2ccnn2)[C@H](C(=O)O)N2C(=O)C[C@H]2S1(=O)=O [Tazobactam, tazobactam]
Ki [1]: 14 ± 5.31 nM
Ki [2]: 100 ± 45.6 nM
Ki [21]: 5.32 ± 0.329 nM
Ki [4]: > 100000 nM
Ki [22]: 159 ± 48.2 nM
Ki [5]: > 100000 nM
Ki [6]: > 100000 nM
Ki [7]: 1.68 ± 0.266 nM
Ki [8]: > 100000 nM
Ki [9]: > 100000 nM
Ki [10]: > 100000 nM
Ki [11]: 0.187 ± 0.104 nM
Ki [12]: > 100000 nM
Ki [23]: 112 ± 14.5 nM
Ki [24]: 270 ± 80.8 nM
Ki [13]: > 100000 nM
Ki [14]: 78.9 ± 8.96 nM
Ki [15]: 0.0403 ± 0.0162 nM
Ki [16]: > 100000 nM
Ki [17]: > 100000 nM
Ki [18]: 0.0387 ± 0.00434 nM
Ki [19]: 1.84 ± 0.243 nM
Ki [20]: > 100000 nM

NC(=O)[C@@H]1CC[C@@H]2CN1C(=O)N2OS(=O)(=O)O [Avibactam, avibactam]
Ki [3]: 2.35 ± 0.763 nM
Ki [4]: > 100000 nM
Ki [5]: > 100000 nM
Ki [6]: > 100000 nM
Ki [7]: 2.55 ± 0.696 nM
Ki [8]: > 100000 nM
Ki [9]: > 100000 nM
Ki [10]: 7350 nM
Ki [11]: 2.26 ± 1.44 nM
Ki [12]: > 100000 nM
Ki [13]: > 100000 nM
Ki [14]: 691 ± 63.8 nM
Ki [15]: 1.29 ± 0.663 nM
Ki [16]: > 100000 nM
Ki [17]: 5900 nM
Ki [18]: 0.369 ± 0.0569 nM
Ki [19]: 2.15 ± 0.264 nM
Ki [20]: > 100000 nM

C[C@@H](O)[C@H]1C(=O)N2C(C(=O)O)=C(SCCN=CN)C[C@H]12 [Imipenem]
CLSI MIC interpretation I (intermediate) [25]: 7.5%
CLSI MIC interpretation R (resistant) [25]: 68.8%
CLSI MIC interpretation S (susceptible) [25]: 23.8%
MIC50 [25]: 8 µg/mL (≈ 26.7 µM)
MIC90 [25]: > 32 µg/mL
CLSI MIC interpretation I (intermediate) [26, 34]: 0%
CLSI MIC interpretation R (resistant) [26, 34]: 95.6%
CLSI MIC interpretation S (susceptible) [26, 34]: 4.4%
CLSI MIC interpretation I (intermediate) [26, 35]: 0%
CLSI MIC interpretation R (resistant) [26, 35]: 97.7%
CLSI MIC interpretation S (susceptible) [26, 35]: 2.3%
CLSI MIC interpretation I (intermediate) [26, 36]: 2.6%
CLSI MIC interpretation R (resistant) [26, 36]: 93.4%
CLSI MIC interpretation S (susceptible) [26, 36]: 3.9%
MIC50 [26, 34]: > 32 µg/mL
MIC90 [26, 34]: > 32 µg/mL
MIC50 [26, 35]: > 32 µg/mL
MIC90 [26, 35]: > 32 µg/mL
MIC50 [26, 36]: 32 µg/mL (≈ 107 µM)
MIC90 [26, 36]: > 32 µg/mL
CLSI MIC interpretation I (intermediate) [27]: 9.1%
CLSI MIC interpretation R (resistant) [27]: 81.8%
CLSI MIC interpretation S (susceptible) [27]: 9.1%
MIC50 [27]: 16 µg/mL (≈ 53.4 µM)
MIC90 [27]: > 32 µg/mL
CLSI MIC interpretation I (intermediate) [28, 37]: 3.1%
CLSI MIC interpretation R (resistant) [28, 37]: 83.3%
CLSI MIC interpretation S (susceptible) [28, 37]: 13.5%
MIC50 [28, 38]: 16 µg/mL (≈ 53.4 µM)
MIC90 [28, 39]: > 32 µg/mL
CLSI MIC interpretation I (intermediate) [29]: 9.5%
CLSI MIC interpretation R (resistant) [29]: 70.3%
CLSI MIC interpretation S (susceptible) [29]: 20.3%
MIC50 [29]: 4 µg/mL (≈ 13.4 µM)
MIC90 [29]: > 32 µg/mL
CLSI MIC interpretation I (intermediate) [30]: 10.2%
CLSI MIC interpretation R (resistant) [30]: 79.5%
CLSI MIC interpretation S (susceptible) [30]: 10.2%
MIC50 [30]: 8 µg/mL (≈ 26.7 µM)
MIC90 [30]: > 32 µg/mL
CLSI MIC interpretation I (intermediate) [31, 37]: 3.6%
CLSI MIC interpretation R (resistant) [31, 37]: 87.3%
CLSI MIC interpretation S (susceptible) [31, 37]: 9.1%
MIC50 [31, 38]: 32 µg/mL (≈ 107 µM)
MIC90 [31, 39]: > 32 µg/mL
CLSI MIC interpretation I (intermediate) [32]: 10.3%
CLSI MIC interpretation R (resistant) [32]: 84.5%
CLSI MIC interpretation S (susceptible) [32]: 5.2%
MIC50 [32]: 8 µg/mL (≈ 26.7 µM)
MIC90 [32]: > 32 µg/mL
CLSI MIC interpretation I (intermediate) [33]: 7.7%
CLSI MIC interpretation R (resistant) [33]: 55.6%
CLSI MIC interpretation S (susceptible) [33]: 36.7%
MIC50 [33]: 4 µg/mL (≈ 13.4 µM)
MIC90 [33]: 32 µg/mL (≈ 107 µM)
